Laboratory results taken from patent US10676514B2, “CDCA1-derived peptide and vaccine containing same” (ONCOTHERAPY SCIENCE, INC., priority 2014, dated 2020).
“Also recorded” adds a separate entry of the source.

Key:
Type in all cases: cell-based, human
[1] = system: peptide-pulsed C1R-A11 cells; assay: IFN-gamma ELISPOT assay of peptide-induced CTLs (HLA-A*1101); settings: CTLs induced from HLA-A*1101-positive donors, peptide-pulsed C1R-A11 vs control, listed as CDCA1-A11-9-343
Text: (§1) Monocyte-derived dendritic cells (DCs) were used as the antigen-presenting cell to induce a cytotoxic T lymphocyte (CTL) response against peptides presented on human leukocyte antigens (HLAs). As described in the other sections, DCs were generated in vitro (Nakahara S et al., Cancer Res 2003, 63(14): 4112-8). Specifically, peripheral-blood mononuclear cells isolated from healthy volunteers (HLA-A*1101-positive) with the Ficoll-Paque plus solution (Pharmacia) were separated by attaching to plastic tissue culture dishes (Becton Dickinson) and concentrated as a monocyte fraction. The monocyte-concentrated population was cultured in the presence of 1000 IU/ml granulocyte macrophage colony-stimulating factor (R&D System) and 1000 IU/ml interleukin(IL)-4 (R&D System) in an AIM-V medium (Invitrogen) containing 2% heat-inactivated autologous serum (AS). After seven days of culturing, the cytokine-induced DCs were pulsed with 20 micro-g/ml each of the synthesized peptides in an AIM-V medium at 37 degrees C. for three hours in the presence of 3 micro-g/ml beta 2-microglobulin. The generated cells appeared to express on their cell surface DC-associated molecules such as CD80, CD83, CD86 and HLA class II (data not shown). Next, these peptide-pulsed DCs were inactivated by X-ray irradiation (20 Gy), and mixed in a 1:20 ratio with autologous CD8^+ T cells obtained by positive selection using the CD8 Positive Isolation Kit (Dynal). These culture products were seeded in a 48-well plate (Corning). Each well was made to contain 1.5×10^4 peptide-pulsed DCs, 3×10^5 CD8^+ T cells and 10 ng/ml IL-7 (R&D System) in 0.5 ml of the AIM-V/2% AS medium. Three days later, these culture products were added with a final concentration of 20 IU/ml IL-2 (CHIRON). On day 7 and day 14, T cells were further stimulated with peptide-pulsed autologous DCs. The DCs were prepared every time by the same method as above. On day 21, after the third peptide stimulation, CTLs were examined against the peptide-pulsed C1R-A11 cells by a human interferon (IFN)-gamma enzyme-linked immunospot (ELISPOT) assay (Tanaka H et al., Br J Cancer 2001, 84(1): 94-9; Umano Y et al., Br J Cancer 2001, 84(8): 1052-7; Uchida N et al., Clin Cancer Res 2004, 10(24): 8577-86; Suda T et al., Cancer Sci 2006, 97(5): 411-9; Watanabe T et al., Cancer Sci 2005, 96(8): 498-506).
Specifically, peptide-pulsed C1R-A11 (1×10^4 cells/well) was prepared as the stimulator cell. The induced CTLs, i.e., CTL lines and CTL clones, were used as the responder cell. The IFN-gamma ELISPOT assay and IFN-gamma ELISA were performed according to the manufacturer's manual.

[2] = system: peptide-pulsed C1R-A03; assay: IFN-gamma ELISPOT assay of peptide-induced CTLs (HLA-A*0301); settings: CTLs induced from HLA-A*0301-positive donors, peptide-pulsed C1R-A03 vs control
Text: as §1, with “(HLA-A*0301-positive)” for “(HLA-A*1101-positive)”, “C1R-A03” for “C1R-A11 cells”
(§2) Specifically, peptide-pulsed C1R-A03 (1×10^4 cells/well) was prepared as the stimulator cell. The induced CTLs, i.e., CTL lines and CTL clones, were used as the responder cell. The IFN-gamma ELISPOT assay and IFN-gamma ELISA were performed according to the manufacturer's manual.

[3] = system: peptide-pulsed C1R-A03; assay: IFN-gamma ELISA of CTL lines and CTL clones (HLA-A*0301)
Procedure: CTLs were propagated in culture using methods similar to those disclosed by Riddell et al. (Walter E A et al., N Engl J Med 1995, 333(16): 1038-44; Riddell S R et al., Nat Med 1996, 2(2): 216-23). The CTLs were co-cultured in a total of 25 ml AIM-V medium containing 5% AS (AIM-V/5% AS) and 40 ng/ml anti-CD3 antibody with two types of Mitomycin C-treated human B lymphoblastoid cell lines at 5×10^6 cells/flask. One day after beginning of the culturing, 120 IU/ml IL-2 was added to the culture. On days 5, 8 and 11, a fresh AIM-V/5% AS medium containing 30 IU/ml IL-2 was added to the culture (Tanaka H et al., Br J Cancer 2001, 84(1): 94-9; Umano Y et al., Br J Cancer 2001, 84(8): 1052-7; Uchida N et al., Clin Cancer Res 2004, 10(24): 8577-86; Suda T et al., Cancer Sci 2006, 97(5): 411-9; Watanabe T et al., Cancer Sci 2005, 96(8): 498-506).
Dilution of CTLs was carried out to make 0.3, 1 and 3 cells/well in 96 round-bottomed microtiter plates (Nalge Nunc International). The CTLs were co-cultured with two types of Mitomycin C-treated human B lymphoblastoid cell lines at 1×10^4 cells/well in a total of 150 micro-l/well AIM-V/5% AS medium with 30 ng/ml anti-CD3 antibody and 125 IU/ml IL-2. Ten days later, IL-2 was added to the medium at 50 micro-l/well to reach a final concentration of 125 IU/ml. On day 14, the CTL activity was tested, and the CTL clones were propagated using the same method as described above (Uchida N et al., Clin Cancer Res 2004, 10(24): 8577-86; Suda T et al., Cancer Sci 2006, 97(5): 411-9; Watanabe T et al., Cancer Sci 2005, 96(8): 498-506).
as §2

Sequence | peptide-specific CTL activity (IFN-gamma production) [1] | peptide-specific CTL activity (IFN-gamma production) ([2]; listed as CDCA1-A03-9-343) | peptide-specific CTL activity (IFN-gamma production) ([2]; listed as CDCA1-A03-10-257) | IFN-gamma production of CTL clones ([3]; CTL clones by limiting dilution, peptide-pulsed C1R-A03, listed as CDCA1-A03-10-257) | IFN-gamma production of CTL lines ([3]; CTL lines, peptide-pulsed vs non-pulsed target cells, HLA-A*0301)
RLMIVKKEK (a peptide derived from CDCA1) [SEQ ID NO: 10] | potent IFN-gamma production; also recorded: significant specific CTL activity | no specific IFN-gamma production; also recorded: specific IFN-gamma production was not observed | – | – | –
KMKDTVQKLK (a peptide derived from CDCA1) [SEQ ID NO: 47] | – | – | potent IFN-gamma production; also recorded: significant specific CTL activity | Potent IFN-gamma production | potent IFN-gamma production
